Among the data in patent publication US20240050428A1 (Cullgen (Shanghai), Inc., priority 2020, published 2024) are IC50 values, retold here.

The test system of one assay is MV4;11 cells. Kind of assay: Cell viability assay (CellTiter-Glo) in MV4;11 cells, alone or with gilteritinib. In kind it is cell-based. The following applies: Homo sapiens, MV4-11, 72 h, MV4;11 cells, CellTiter-Glo, read-out: MV4. On the technique in general: ATP-based viability assays read luminescence as a measure of living cells.
The test system of a further assay is MOLM-13 cells. Kind of assay: Cell viability assay (CellTiter-Glo) in MOLM-13 cells, alone or with gilteritinib. The note with it: Homo sapiens, MOLM-13, 72 h, MOLM-13 cells, CellTiter-Glo. The class given is cell-based.
The mark [1] stands for this setting: compound alone (without gilteritinib), three days, 11 IC50.
[2] abbreviates: with gilteritinib 10 nM, three days, 11 IC50 gilteritinib.
Setting [3] is: compound alone (without gilteritinib), three days, read-out: MOLM-13 IC50.
Where [4] appears, read: with gilteritinib 20 nM, three days, read-out: MOLM-13 IC50 gilteritinib.
Where [5] appears, read: compound with gilteritinib 10 nM, three days, 11 IC50 gilteritinib.
[6] abbreviates: compound with gilteritinib 20 nM, three days, read-out: MOLM-13 IC50 gilteritinib.

Read-outs that look alike come from different tables or passages of the source.

As for `O=C1CCC(N2Cc3c(csc3CNC(=O)Nc3cccc(N4CCC(n5cc(-c6cnc7ccccc7n6)cn5)CC4)c3)C2=O)C(=O)N1` (stereo not drawn) [GS-093, 1-((5-(2,6-Dioxopiperidin-3-yl)-4-oxo-5,6-dihydro-4H-thieno[3,4-c]pyrrol-1-yl)methyl)-3-(3-(4-(4-(quinoxalin-2-yl)-1H-pyrazol-1-yl)piperidin-1-yl)phenyl)urea], the IC50 in the assay with MV4;11 cells (setting [1]), in the assay on MV4;11 cells (setting [2]), in the assay with MOLM-13 cells (setting [3]) and in the assay on MOLM-13 cells (setting [4]) was less than 10 nM in each case.
Consider `O=C1CCC(N2C(=O)c3ccc(NCCC4CC5(C4)CC(n4cc(-c6cnc7ccccc7n6)cn4)C5)cc3C2=O)C(=O)N1` (stereo not drawn) [GS-564, 2-(2,6-Dioxopiperidin-3-yl)-5-((2-(6-(4-(quinoxalin-2-yl)-1H-pyrazol-1-yl)spiro[3.3]heptan-2-yl)ethyl)amino)isoindoline-1,3-dione], for which the IC50 in the assay with MV4;11 cells (setting [1]) is 10 to 100 nM; with MV4;11 cells (setting [5]), less than 10 nM; with MOLM-13 cells (setting [3]) it was 10 to 100 nM; in the assay with MOLM-13 cells (setting [6]), less than 10 nM.
For `O=C1CCC(N2C(=O)c3ccc(NCCC[C@H]4C[C@H](n5cc(-c6cccc(N7CCC7)n6)cn5)C4)cc3C2=O)C(=O)N1` (stereo partly drawn) [GS-451, 5-((3-(trans-3-(4-(6-(azetidin-1-yl)pyridin-2-yl)-1H-pyrazol-1-yl)cyclobutyl)propyl)amino)-2-(2,6-dioxopiperidin-3-yl)isoindoline-1,3-dione], the IC50 in the assay with MV4;11 cells (setting [1]) lay within 10 to 100 nM; in the assay with MV4;11 cells (setting [5]), 10 to 100 nM; with MOLM-13 cells (setting [3]), 100 to 1000 nM; in the assay on MOLM-13 cells (setting [6]), 10 to 100 nM.
On to `O=C1CCC(N2C(=O)c3ccc(NCCCCCC(=O)N4CCC(n5cc(C6CNc7ccccc7N6)cn5)CC4)cc3C2=O)C(=O)N1` (stereo not drawn) [GS-008, 2-(2,6-Dioxopiperidin-3-yl)-5-((6-oxo-6-(4-(4-(1,2,3,4-tetrahydroquinoxalin-2-yl)-1H-pyrazol-1-yl)piperidin-1-yl)hexyl)amino)isoindoline-1,3-dione], for which the IC50 in the assay on MV4;11 cells (with 10 nM gilteritinib, 3 days, 11 IC50 gilteritinib) turned out to be 27 nM; with MV4;11 cells (without gilteritinib, 3 days, 11 IC50), 449 nM; in the assay with MOLM-13 cells (with 20 nM gilteritinib, 3 days, read-out: MOLM-13 IC50 gilteritinib), 14 nM; in the assay on MOLM-13 cells (without gilteritinib, 3 days, read-out: MOLM-13 IC50), 78 nM.
For the molecule `O=C1CCC(N2C(=O)c3ccc(NCCCCCNc4ncc(-c5cnc6ccccc6n5)s4)cc3C2=O)C(=O)N1` (stereo not drawn) [GS-390, 2-(2,6-Dioxopiperidin-3-yl)-5-((5-((5-(quinoxalin-2-yl)thiazol-2-yl)amino)pentyl)amino)isoindoline-1,3-dione], the IC50 with MV4;11 cells (setting [1]) was more than 1000 nM; in the assay with MV4;11 cells (setting [2]) it was 100 to 1000 nM; in the assay on MOLM-13 cells (setting [3]) it was more than 1000 nM; in the assay with MOLM-13 cells (setting [4]) it was 100 to 1000 nM.
Turning to `Cc1nn([C@H]2C[C@H](CCCNc3ccc4c(c3)C(=O)N(C3CCC(=O)NC3=O)C4=O)C2)cc1-c1cnc2ccc(N3C[C@H]4C[C@@H]3CN4C)cc2n1` (stereo partly drawn) [GS-407, 2-(2,6-dioxopiperidin-3-yl)-5-((3-(trans-3-(3-methyl-4-(7-((1R,4R)-5-methyl-2,5-diazabicyclo[2.2.1]heptan-2-yl)quinoxalin-2-yl)-1H-pyrazol-1-yl)cyclobutyl)propyl)amino)isoindoline-1,3-dione], the IC50 in the assay on MV4;11 cells (setting [1]) is more than 1000 nM; in the assay with MV4;11 cells (setting [2]) it was 100 to 1000 nM; in the assay on MOLM-13 cells (setting [3]) it was more than 1000 nM; with MOLM-13 cells (setting [4]), 10 to 100 nM.
Take `O=C1CCC(N2Cc3cc(NC(=O)C(F)(F)c4cccc(N5CCC(n6cc(-c7cnc8ccccc8n7)cn6)CC5)c4)ccc3C2=O)C(=O)N1` (stereo not drawn) [GS-500, N-(2-(2,6-dioxopiperidin-3-yl)-1-oxoisoindolin-5-yl)-2,2-difluoro-2-(3-(4-(4-(quinoxalin-2-yl)-1H-pyrazol-1-yl)piperidin-1-yl)phenyl)acetamide]: the IC50 in the assay on MV4;11 cells (setting [1]), in the assay on MV4;11 cells (setting [5]), in the assay on MOLM-13 cells (setting [3]) and with MOLM-13 cells (setting [6]) was less than 10 nM each time.
With `O=C1CCC(N2C(=O)c3ccc(NCCC[C@H]4C[C@H](n5cc(-c6cnc7ccc(OC8CC8)cc7n6)cn5)C4)cc3C2=O)C(=O)N1` (stereo partly drawn) [GS-202, 5-((3-(trans-3-(4-(7-Cyclopropoxyquinoxalin-2-yl)-1H-pyrazol-1-yl)cyclobutyl)propyl)amino)-2-(2,6-dioxopiperidin-3-yl)isoindoline-1,3-dione], the IC50 is 10 to 100 nM with MV4;11 cells (setting [1]), less than 10 nM in the assay on MV4;11 cells (setting [2]), 100 to 1000 nM with MOLM-13 cells (setting [3]) and less than 10 nM in the assay on MOLM-13 cells (setting [4]).
Take `O=C1CCC(N2Cc3ccc(CCCCCCC(=O)N4CCC(n5cc(-c6cnc7ccccc7n6)cn5)CC4)cc3C2=O)C(=O)N1` (stereo not drawn) [GS-097, 3-(1-Oxo-6-(7-oxo-7-(4-(4-(quinoxalin-2-yl)-1H-pyrazol-1-yl)piperidin-1-yl)heptyl)isoindolin-2-yl)piperidine-2,6-dione]: the IC50 is 10 to 100 nM with MV4;11 cells (setting [1]), less than 10 nM in the assay on MV4;11 cells (setting [2]), 10 to 100 nM in the assay on MOLM-13 cells (setting [3]) and less than 10 nM with MOLM-13 cells (setting [4]).
In the case of `O=C1CCC(N2C(=O)c3ccc(NC[C@H]4C[C@H](n5cc(-c6cc(Cl)ccn6)c(C6CC6)n5)C4)cc3C2=O)C(=O)N1` (stereo partly drawn) [GS-264, 5-(((trans-3-(4-(4-Chloropyridin-2-yl)-3-cyclopropyl-1H-pyrazol-1-yl)cyclobutyl)methyl)amino)-2-(2,6-dioxopiperidin-3-yl)isoindoline-1,3-dione], the IC50 in the assay on MV4;11 cells (setting [1]) is 10 to 100 nM; in the assay with MV4;11 cells (setting [2]) it was less than 10 nM; in the assay with MOLM-13 cells (setting [3]) it was 10 to 100 nM; in the assay with MOLM-13 cells (setting [4]), less than 10 nM.
For the molecule `O=C1CCC(N2C(=O)c3ccc(NCC4CC(n5cc(-c6cnc7ccccc7n6)cn5)C4)cc3C2=O)C(=O)N1` (stereo not drawn) [GS-538, 2-(2,6-Dioxopiperidin-3-yl)-5-(((3-(4-(quinoxalin-2-yl)-1H-pyrazol-1-yl)cyclobutyl)methyl)amino)isoindoline-1,3-dione], the IC50 in the assay with MV4;11 cells (setting [1]) was 100 to 1000 nM; with MV4;11 cells (setting [5]) it was 10 to 100 nM; in the assay with MOLM-13 cells (setting [3]) it was 100 to 1000 nM; with MOLM-13 cells (setting [6]) it was 10 to 100 nM.
With `O=C1CCC(N2C(=O)c3ccc(NCCCCC(=O)N4CCC(n5cc(-c6cnc7ccccc7n6)cn5)CC45CC5)cc3C2=O)C(=O)N1` (stereo not drawn) [GS-153, 2-(2,6-Dioxopiperidin-3-yl)-5-((5-oxo-5-(7-(4-(quinoxalin-2-yl)-1H-pyrazol-1-yl)-4-azaspiro[2.5]octan-4-yl)pentyl)amino)isoindoline-1,3-dione], the IC50 with MV4;11 cells (setting [1]) is 100 to 1000 nM; in the assay on MV4;11 cells (setting [2]), 100 to 1000 nM; with MOLM-13 cells (setting [3]), more than 1000 nM; in the assay on MOLM-13 cells (setting [4]), 10 to 100 nM.
In the case of `CNc1cccnc1-c1cn([C@H]2C[C@H](CNc3ccc4c(c3)C(=O)N(C3CCC(=O)NC3=O)C4=O)C2)nc1C1CC1` (stereo partly drawn) [GS-620, 5-(((trans-3-(3-Cyclopropyl-4-(3-(methylamino)pyridin-2-yl)-1H-pyrazol-1-yl)cyclobutyl)methyl)amino)-2-(2,6-dioxopiperidin-3-yl)isoindoline-1,3-dione], the IC50 with MV4;11 cells (setting [1]) was 10 to 100 nM; in the assay on MV4;11 cells (setting [5]), less than 10 nM; in the assay on MOLM-13 cells (setting [3]), 100 to 1000 nM; in the assay on MOLM-13 cells (setting [6]), less than 10 nM.
In the case of `O=C1CCC(N2C(=O)c3ccc(NC(=O)CCCC(=O)N4CCC(n5cc(-c6cnc7ccccc7n6)cn5)CC4)cc3C2=O)C(=O)N1` (stereo not drawn) [GS-327, N-(2-(2,6-Dioxopiperidin-3-yl)-1,3-dioxoisoindolin-5-yl)-5-oxo-5-(4-(4-(quinoxalin-2-yl)-1H-pyrazol-1-yl)piperidin-1-yl)pentanamide], the IC50 in the assay with MV4;11 cells (setting [1]) is more than 1000 nM; in the assay on MV4;11 cells (setting [2]) it was 100 to 1000 nM; in the assay with MOLM-13 cells (setting [3]) it was more than 1000 nM; with MOLM-13 cells (setting [4]), more than 1000 nM.
Turning to `O=C1CCC(N2C(=O)c3ccc(CNC4CC(n5cc(-c6cnc7ccccc7n6)c(C6CC6)n5)C4)cc3C2=O)C(=O)N1` (stereo not drawn) [GS-461, 5-(((3-(3-cyclopropyl-4-(quinoxalin-2-yl)-1H-pyrazol-1-yl)cyclobutyl)amino)methyl)-2-(2,6-dioxopiperidin-3-yl)isoindoline-1,3-dione], the IC50 in the assay with MV4;11 cells (setting [1]), with MV4;11 cells (setting [5]), in the assay with MOLM-13 cells (setting [3]) and in the assay on MOLM-13 cells (setting [6]) was more than 1000 nM each time.
With `Cc1cccc(-c2cn([C@H]3C[C@H](CCCNc4ccc5c(c4)C(=O)N(C4CCC(=O)NC4=O)C5=O)C3)nc2C2CC2)n1` (stereo partly drawn) [GS-592, 5-((3-(trans-3-(3-Cyclopropyl-4-(6-methylpyridin-2-yl)-1H-pyrazol-1-yl)cyclobutyl)propyl)amino)-2-(2,6-dioxopiperidin-3-yl)isoindoline-1,3-dione], the IC50 in the assay with MV4;11 cells (setting [1]) is 10 to 100 nM; in the assay on MV4;11 cells (setting [5]), less than 10 nM; in the assay on MOLM-13 cells (setting [3]), 100 to 1000 nM; in the assay with MOLM-13 cells (setting [6]) it was 10 to 100 nM.
As for `CN1CCC(Nc2ccnc(-c3cn([C@H]4C[C@H](CNc5ccc6c(c5)C(=O)N(C5CCC(=O)NC5=O)C6=O)C4)nc3C3CC3)c2)CC1` (stereo partly drawn) [GS-295, 5-(((trans-3-(3-Cyclopropyl-4-(4-((1-methylpiperidin-4-yl)amino)pyridin-2-yl)-1H-pyrazol-1-yl)cyclobutyl)methyl)amino)-2-(2,6-dioxopiperidin-3-yl)isoindoline-1,3-dione], the IC50 in the assay on MV4;11 cells (setting [1]), with MV4;11 cells (setting [2]), in the assay on MOLM-13 cells (setting [3]) and in the assay with MOLM-13 cells (setting [4]) was more than 1000 nM each time.
Consider `O=C1CCC(N2C(=O)c3ccc(NC[C@H]4C[C@H](n5nc(C6CC6)c6ccncc65)C4)cc3C2=O)C(=O)N1` (stereo partly drawn) [GS-473, 5-(((trans-3-(3-cyclopropyl-1H-pyrazolo[3,4-c]pyridin-1-yl)cyclobutyl)methyl)amino)-2-(2,6-dioxopiperidin-3-yl)isoindoline-1,3-dione], for which the IC50 in the assay on MV4;11 cells (setting [1]), in the assay with MV4;11 cells (setting [5]), in the assay with MOLM-13 cells (setting [3]) and in the assay on MOLM-13 cells (setting [6]) was more than 1000 nM each time.
